From ChEMBL document CHEMBL3352057, “Novel fluorinated pyrrolo[1,2-a]pyrazine-2,6-dione derivatives: synthesis and anticonvulsant evaluation in animal models of epilepsy” (Bioorg Med Chem, 2014)

Tests used:
Mus musculus [1] = assay: Anticonvulsant activity in ip dosed albino CF1 mouse assessed as protection against 6 Hz current-induced seizures; format: functional
Mus musculus [2] = assay: Neurotoxicity in ip dosed 6 Hz current-induced seizure albino CF1 mouse model; format: toxicity, organism-based; conditions: in vivo
[3] = Protective index, ratio of TD50 for neurotoxicity in ip dosed albino CF1 mouse to ED50 for anticonvulsant activity in ip dosed 6 Hz current-induced seizure albino CF1 mouse model; format: toxicity, organism-based; conditions: in vivo, read-out: Ratio TD50/ED50
Mus musculus [4] = assay: Anticonvulsant activity in ip dosed albino CF1 mouse assessed as protection against 6 Hz current-induced seizures measured as time to peak effect; format: functional
Mus musculus [5] = assay: Anticonvulsant activity in ip dosed corneal kindled albino CF1 mouse seizure model; format: functional
Mus musculus [6] = assay: Anticonvulsant activity in ip dosed corneal kindled albino CF1 mouse seizure model assessed as time to peak effect; format: functional
Rattus norvegicus [7] = assay: Anticonvulsant activity in ip dosed Sprague-Dawley rat assessed as protection against maximal electroshock-induced seizures; format: functional
Rattus norvegicus [8] = assay: Anticonvulsant activity in ip dosed Sprague-Dawley rat assessed as protection against subcutaneous metrazol-induced seizures; format: functional
[9] = Protective index, ratio of TD50 for neurotoxicity in ip dosed Sprague-Dawley rat to ED50 for anticonvulsant activity in ip dosed MES Sprague-Dawley rat model; format: toxicity, organism-based; conditions: in vivo, read-out: Ratio TD50/ED50
Rattus norvegicus [10] = assay: Anticonvulsant activity in ip dosed Sprague-Dawley rat assessed as protection against maximal electroshock-induced seizures measured as time to peak effect; format: functional
[11] = Neurotoxicity in ip dosed Sprague-Dawley rat measured at 0.25 hr post dose; format: toxicity, organism-based; conditions: in vivo
Rattus norvegicus [12] = assay: Anticonvulsant activity in ip dosed Sprague-Dawley rat assessed as protection against subcutaneous metrazol-induced seizures measured at 0.25 hr post dose; format: functional

Compound | ED50 (Mus musculus [1]) [µmol/kg] | ED50 (Mus musculus [2]) [µmol/kg] | selectivity ratio [3] | Time (Mus musculus [4]) [h] | ED50 (Mus musculus [5]) [µmol/kg] | Time (Mus musculus [6]) [h] | ED50 (Rattus norvegicus [7]) [µmol/kg] | ED50 (Rattus norvegicus [8]) [µmol/kg] | selectivity ratio [9] | Time (Rattus norvegicus [10]) [h] | TD50 at 0.25 h [11] [µmol/kg] | ED50 (Rattus norvegicus [12]) [µmol/kg]
CC[C@@H](C(N)=O)N1CCCC1=O | 114 | 252 | > 25.8 | 1 | 94 | 0.5 | – | – | – | – | – | –
CCCC(CCC)C(=O)[O-].[Na+] [VALPROATE SODIUM] | – | – | – | – | 948 | 0.5 | 890 | 1420 | 2.1 | 0.5 | 1910 | 1420
